Reference: patent US20210393791A1, “COMBINATION TREATMENT WITH ANTI-CD123 ANTIBODY DRUG CONJUGATE AND PARP INHIBITOR” (Health Research, Inc., priority 2018, published 2021)

Key:
[1] = system: human AML cell lines; assay: AML cell line viability, WST-8 colorimetric assay; type: cell-based; conditions: 120 h, continuous single agent 5-day treatment, read-out: IC50, in vitro inhibition of AML cell line growth
Protocol: CD123 expression on human AML cell lines (HEL, HL60, MV411, Molm13, EOL-1, THP-1, and Kasumi-1) was quantified by flow cytometry using QuantriBrite beads. […] Cell viability was measured using a WST-8 colorimetric assay. Primary clinically annotated CD123+AML cells from patients with relapsed/refractory disease were obtained under IRB-approved protocols from the Roswell Park (Buffalo, N.Y.) Hematologic Procurement Shared Resource and cultured short-term in the presence of multiple cytokines plus IMGN632+/−PARP inhibitors. Apoptosis (Annexin V/PI), cell cycle, and DNA damage (H2AX) were evaluated by flow cytometry. Additive vs. synergistic effects were determined by combination indices using Compusyn software. PARP trapping was evaluated by Western blot analysis in nuclear lysates obtained from IMGN632+/−PARP inhibitors treated AML cells.

[2] = system: primary CD123+ AML cells from patients with relapsed/refractory disease; assay: Short-term culture of primary relapsed/refractory AML patient samples; type: cell-based, human; conditions: single agent, in vitro
Protocol: CD123 expression on human AML cell lines (HEL, HL60, MV411, Molm13, EOL-1, THP-1, and Kasumi-1) was quantified by flow cytometry using QuantriBrite beads. AML cells were continuously cultured for 72-96 hours with varying doses of IMGN632 (range 100 pM-100 nM) and specific PARP inhibitors (range 100 pM-15 μM) alone and in combination. Cell viability was measured using a WST-8 colorimetric assay. Primary clinically annotated CD123+AML cells from patients with relapsed/refractory disease were obtained under IRB-approved protocols from the Roswell Park (Buffalo, N.Y.) Hematologic Procurement Shared Resource and cultured short-term in the presence of multiple cytokines plus IMGN632+/−PARP inhibitors. Apoptosis (Annexin V/PI), cell cycle, and DNA damage (H2AX) were evaluated by flow cytometry. Additive vs. synergistic effects were determined by combination indices using Compusyn software. PARP trapping was evaluated by Western blot analysis in nuclear lysates obtained from IMGN632+/−PARP inhibitors treated AML cells.

[3] = system: preclinical AML models; conditions: Portwood S et al, ASH 2016; cited from earlier work

Row | Compound | IC50 [1] | activity against primary relapsed/refractory AML patient samples [2] | effect on activity of the CD33-targeted ADC IMGN779 [3]
1 | Cn1ncnc1[C@H]1c2n[nH]c(=O)c3cc(F)cc(c23)N[C@@H]1c1ccc(F)cc1 [talazoparib] | 0.36 µM | single agent activity | 
2 | IMGN632 |  | single agent activity | 
3 | C[C@]1(c2nc3c(C(N)=O)cccc3[nH]2)CCCN1 [veliparib] | 78 µM |  | 
4 | O=C(c1cc(Cc2n[nH]c(=O)c3ccccc23)ccc1F)N1CCN(C(=O)C2CC2)CC1 [olaparib] |  | single agent activity | synergistically enhance
